Data on 5 compounds can be found in PMC10790229 (Journal of medicinal chemistry, 2023).

One data set concerns HIV-1 IIIB. As to the kind of experiment: Anti-HIV-1 activity in MT-4 cells. It is filed as cell-based. The following applies: for SI IIIB (CC50/EC50) / fold improvement of anti-HIV-1 potency over 11L / fold improvement of anti-HIV-1 potency over PF74: HIV-1 IIIB; for SI IIIB (CC50/EC50) / fold improvement of anti-HIV-1 potency over 11L / fold improvement of anti-HIV-1 potency over PF74 / Ratio IIIB(EC50)/ROD(EC50): MT-4 cells; for EC50: Human immunodeficiency virus 1, IIIB, MT4, read-out: EC50 IIIB.

A short description of data set [1]: Cytotoxicity in uninfected MT-4 cells. It is filed as cell-based. The conditions noted are these: human.
A further data set concerns HIV-2 ROD. In words: Anti-HIV-2 activity in MT-4 cells. It is filed as cell-based. The following applies: for EC50: Human immunodeficiency virus 2, MT4, read-out: EC50 ROD.
A short description of data set [2]: in vitro. The conditions noted are these: human, microsomes.
Data set [3] concerns HIV-1. The following applies: read-out: EC50 antiviral activity; MT-4 cells; cited from earlier work.
The target of data set [4] is hexameric HIV-1 CA NL4.3 protein (Human immunodeficiency virus type 1, UniProt P12493). In words: SPR binding to disulfide-stabilized hexameric HIV-1 CA. The conditions noted are these: for Residence Time Hexamer / koff Hexamer: CA hexamer; for Kd: read-out: KD Hexamer, CA hexamer.
In data set [5] the target is monomeric HIV-1 CA NL4.3 protein (Human immunodeficiency virus type 1 group M subtype B, UniProt P12493). As to the kind of experiment: SPR binding to monomeric HIV-1 CA. The conditions noted are these: for Residence Time Monomer / koff Monomer: SPR, CA monomer.
The conditions of data set [6]: in vivo, cited from earlier work.
Data set [7] can be described thus: Metabolic stability in human liver microsomes.
Data set [8] has as its target reverse transcriptase (RT) (Human immunodeficiency virus type 1 group M subtype B, UniProt P04585). As to the kind of experiment: In vitro reverse transcriptase inhibition assay. It is filed as biochemical, HIV-1. The conditions noted are these: 900 nM.
Data set [9] has as its system p24 content of produced pseudoviruses. As to the kind of experiment: ELISA-based quantification of capsid. The conditions noted are these: compound at 10× over EC50. It is filed as cell-based, HIV-1.
The target in a further data set is HIV-1 CA-NC (Human immunodeficiency virus type 1 group M subtype B, UniProt P12493). In words: FRET-based in vitro CA assembly assay. It is filed as biochemical. The following applies: 50 μM compound.
For data set [10] the following is noted: human.
In data set [11] the target is CPSF6 peptide binding to hexameric HIV-1 CA NL4.3 protein (Human immunodeficiency virus type 1, UniProt P12493). As to the kind of experiment: SPR-based CPSF6 peptide competition assay. The following applies: read-out: IC50 CPSF6 peptide competition, CA hexamer.
Data set [12] can be described thus: in vitro. It is filed as in vitro ADME. The conditions noted are these: human, plasma.
In data set [13] the test system is HIV-1. It is filed as cell-based. The following applies: 1 μM compound; DMSO = 100.
Data set [14] concerns hexameric HIV-1 CA NL4.3 protein. As to the kind of experiment: SPR binding to disulfide-stabilized hexameric HIV-1 CA.
Data set [15] is described as follows: In vivo pharmacokinetic study in SD rats. The following applies: Sprague-Dawley, rat.

Structures are written as SMILES.

In the case of `COc1ccc(N(C)C(=O)[C@H](Cc2ccccc2)NC(=O)Cc2c(C)[nH]c3ccccc23)cc1` [PF74, reference compound], the “SI IIIB (CC50/EC50)” value with HIV-1 IIIB is reported as more than 367.65. In data set [1], this compound registered a CC50 of more than 294000 nM. Moreover, in the data set on HIV-2 ROD (HIV-2 ROD, MT-4 cells), the “SI ROD (CC50/EC50)” value was more than 77.64. Besides, the EC50 in the data set with HIV-2 ROD is 3780 ± 380 nM; in the data set with HIV-1 [3], 870 nM. Also, the intrinsic clearance (CLint scaled) at 1 h, 1 µM in “in vitro [2]” came out at 1900 mL/min/kg. In data set [4], the “Residence Time Hexamer” value was determined as 0.463 min. In addition, the “Residence Time Monomer” value in [5] worked out at 0.011 min.
Turning to `CC(C)(C#Cc1ccc(-c2ccc(Cl)c3c(NS(C)(=O)=O)nn(CC(F)(F)F)c23)c([C@H](Cc2cc(F)cc(F)c2)NC(=O)Cn2nc(C(F)(F)F)c3c2C(F)(F)[C@@H]2C[C@H]32)n1)S(C)(=O)=O` [LEN, Lenacapavir], in data set [6] (po), the “oral half-life T1/2” value is 240 to 288 h. Besides, the “subcutaneous half-life T1/2” value in data set [6] (sc) is on record as 8–12 weeks.
As to `C[C@]12CC[C@H]3[C@@H](CCC4=CC(=O)CC[C@@]43C)[C@@H]1CC[C@@H]2O` [Testosterone, testosterone], the fraction remaining at 1 h, 1 µM in data set [7] amounted to 95.8%.
`COc1ccc(-n2c([C@H](Cc3cc(F)cc(F)c3)NC(=O)CN3CCN(S(=O)(=O)c4ccc(N)cc4)CC3=O)nc3ccccc3c2=O)cc1` [12a2, (S)-2-(4-((4-Aminophenyl)sulfonyl)-2-oxopiperazin-1-yl)-N-(2-(3,5-difluorophenyl)-1-(3-(4-methoxyphenyl)-4-oxo-3,4-dihydroquinazolin-2-yl)ethyl)acetamide]: the “RT activity compared to RT control” value in [8] was “about 80%”. In addition, in [9], the “p24 content of the produced virus” value was “did not change significantly”. Also, the “effect on CA assembly” value at HIV-1 CA-NC is given as “enhance CA assembly”. In addition, the “intrinsic CL in microsomes, CLint(mic)” value in data set [10] was determined as 143.4 mL/min/kg. Also, in the data set with HIV-1 IIIB, the “fold improvement of anti-HIV-1 potency over 11L” value turned out to be 2.5 fold, the “fold improvement of anti-HIV-1 potency over PF74” value was found to be 7.3 fold, the half-maximal effective concentration (EC50) worked out at 110 ± 30 nM and the “Ratio IIIB(EC50)/ROD(EC50)” value is given as 1.10. The IC50 in data set [11] is 189 ± 89.8 nM. In addition, the share remaining at 2 h in “in vitro [12]” turned out to be 110%. This compound had a CC50 in [1] of more than 178000 nM. In the data set on HIV-2 ROD (HIV-2 ROD, MT-4 cells), the “SI ROD (CC50/EC50)” value is reported as more than 1736.11 and the “fold improvement of anti-HIV-2 potency over PF74” value is on record as “approximately 40 fold”. For the same compound, in the data set with HIV-2 ROD, the EC50 was determined as 100 ± 10 nM. In “in vitro [2]”, this compound gave a CLint scaled of 129 mL/min/kg, a half-life of 9.7 min and an intrinsic clearance (microsomal CLint) of 143 µL/min/mg. Also, in “in vitro [2]” (% Remaining (NCF = 60 min)), the share remaining at 1 h stood at 107%. In addition, the share remaining at 1 h in the data set “in vitro [2]” (% Remaining (T = 60 min)) was 1.1%. Besides, in the data set with HIV-1 [13], the “% Infection Early Stage” value is 0.092 ± 0.013% and the “% Infection Late Stage” value turned out to be 0.019 ± 0.002%. For the same compound, in data set [4], the “fold increase in affinity toward the CA hexamer compared to 11L” value stood at 2 fold, the “Residence Time Hexamer” value is 0.321 min, the “koff Hexamer” value was 0.052 ± 0.005 s⁻¹ and the Kd is 561 ± 31 nM. Besides, the “Ratio KD Monomer/KD Hexamer” value in data set [14] is given as 1.490. Moreover, in data set [5], binding was put at a Kd of 838 ± 170 nM, the “Residence Time Monomer” value amounted to 0.203 min and the “koff Monomer” value was found to be 0.082 ± 0.011 s⁻¹.
As for `Nc1ccc(S(=O)(=O)N2CCN(CC(=O)N[C@@H](Cc3cc(F)cc(F)c3)c3nc4ccccc4c(=O)n3-c3ccc(S(=O)(=O)N4CCOCC4)cc3)C(=O)C2)cc1` [21a2, (S)-2-(4-((4-Aminophenyl)sulfonyl)-2-oxopiperazin-1-yl)-N-(2-(3,5-difluorophenyl)-1-(3-(4-(morpholinosulfonyl)phenyl)-4-oxo-3,4-dihydroquinazolin-2-yl)ethyl)acetamide], in data set [8], the “RT activity compared to RT control” value is “about 80%”. Moreover, in [9], the “p24 content of the produced virus” value was “did not change significantly”. Also, in [15] (iv, 2 mg/kg), the area under the curve (AUC) was determined as 574 ± 151 ng·h/mL, the AUC(0-t) stood at 572 ± 151 ng·h/mL, the C0 was determined as 2980 ± 545 ng/mL and the Cmax worked out at 1650 ± 361 ng/mL. Further, in data set [15] (iv, 2 mg/kg), the MRT turned out to be 17 ± 2.81 min, the Tmax worked out at 4.98 min, the Vd was found to be 2.58 ± 0.707 L/kg and the half-life is 30.8 ± 10.6 min. Also, the clearance in data set [15] (iv, 2 mg/kg, CL (i.v.), SD rat, i.v. 2 mg/kg) was 60.5 mL/min/kg. In data set [15] (po, 20 mg/kg), this compound registered an exposure (AUC) of 37.3 ng·h/mL, an AUC(0-t) of 10.8 ± 17.4 ng·h/mL, a Cmax of 6.58 ± 8.24 ng/mL and an MRT of 182 min. Also, in data set [15] (po, 20 mg/kg), the time of peak concentration (Tmax) was determined as 20 ± 8.64 min and the half-life is 121 min. Further, on HIV-1 CA-NC, the “effect on CA assembly” value is listed as “enhance CA assembly”. The “intrinsic CL in microsomes, CLint(mic)” value in data set [10] is given as 312.7 mL/min/kg. In the data set on HIV-1 IIIB, the “SI IIIB (CC50/EC50)” value was more than 1329.79, the “fold improvement of anti-HIV-1 potency over 11L” value stood at 2.5 fold, the “fold improvement of anti-HIV-1 potency over PF74” value was 7.3 fold and the 50% effective concentration (EC50) was 110 ± 50 nM. Besides, the “Ratio IIIB(EC50)/ROD(EC50)” value in the data set with HIV-1 IIIB was 1.38. For the same compound, the IC50 in [11] amounted to 163 ± 47.1 nM. In addition, the amount remaining at 2 h in the data set “in vitro [12]” turned out to be 102%. In [1], this compound gave a CC50 of more than 152000 nM. Further, in the data set with HIV-2 ROD (HIV-2 ROD, MT-4 cells), the “SI ROD (CC50/EC50)” value was more than 1923.08. The EC50 in the data set with HIV-2 ROD was 80 ± 10 nM. Moreover, in the data set “in vitro [2]”, the CLint scaled worked out at 282 mL/min/kg, the half-life came out at 4.4 min and the microsomal CLint is 313 µL/min/mg. The amount remaining at 1 h in “in vitro [2]” (% Remaining (NCF = 60 min)) amounted to 94.4%. Also, the share remaining at 1 h in the data set “in vitro [2]” (% Remaining (T = 60 min)) was 0.2%. In addition, in the data set on HIV-1 [13], the “% Infection Early Stage” value was found to be 0.109 ± 0.046% and the “% Infection Late Stage” value was 0.017 ± 0.003%. Also, in [4], the “Residence Time Hexamer” value is on record as 1.389 min, the “koff Hexamer” value came out at 0.012 ± 0.000 s⁻¹ and the Kd turned out to be 199 ± 19 nM. The “Ratio KD Monomer/KD Hexamer” value in data set [14] is reported as 1.230. Further, in [5], the Kd came out at 244 ± 37 nM, the “Residence Time Monomer” value is listed as 0.417 min and the “koff Monomer” value turned out to be 0.040 ± 0.007 s⁻¹.
